Assay results published in paper PMC12751012, “Nanoscale Direct-to-Biology Optimization and Structural Insights into Selective S. aureus TrmD Inhibitors” (Journal of Medicinal Chemistry, 2025).

The compounds below were run against T1, S. aureus TrmD (Staphylococcus aureus, UniProt Q2FZ43) (assay: nanoSAR direct-to-biology FP displacement screening of crude triazoles). Conditions: crude triazole at 1 μM, assuming full conversion; 500 nM TrmD, 10 nM tracer 4.
T1 construct: made in house; host or cells: E. coli BL21
T1 sequence (Q2FZ43 1-245): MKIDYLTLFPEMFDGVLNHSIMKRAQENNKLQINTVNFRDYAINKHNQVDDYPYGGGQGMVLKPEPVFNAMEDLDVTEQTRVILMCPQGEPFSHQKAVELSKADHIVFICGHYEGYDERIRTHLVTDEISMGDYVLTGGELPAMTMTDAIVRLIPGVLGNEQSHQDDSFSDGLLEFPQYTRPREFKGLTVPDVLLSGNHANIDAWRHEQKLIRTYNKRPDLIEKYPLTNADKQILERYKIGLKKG
Assay type: binding
Description: Next, we conducted an S. aureus TrmD-targeting nanoSAR study. For this, alkyne 7 was reacted on a 96 nmol scale with an in-house diversity-oriented azide library (N = 320, mean pairwise Tanimoto similarity = 0.11) designed to cover a large chemical fragment space, generating a panel of 320 crude triazoles ready for FP assay investigation. The composition of the azide library is designed to be chemically diverse in several categories, including physicochemical properties such as polar surface area, lipophilicity, and the number of hydrogen bond donors and acceptors, as well as structural features like the number of aromatic rings (Figure S23). A complete list of chemical structures included in the azide library can be found in Table S4. In situ reaction conditions for CuAAC were adapted from Gehrtz et al., utilizing CuSO4, which is reduced in situ to Cu(I) by sodium ascorbate and stabilized by TBTA. Degassed water and DMSO (1:1) were used as solvents to prevent the oxidation from Cu(I) to Cu(II). For the synthesis of the triazole library, a master mix was prepared, containing all reaction components except the azides. All reactions were started by the addition of the respective azide in 24 μL at a final product concentration of 4 mM (96 nmol). Reaction mixtures were incubated for 16 h at room temperature and under an argon atmosphere in sealed 96-well plates.
For FP assay screening, we used 500 nM of S. aureus TrmD and 10 nM of tracer 4 in a total volume of 40 μL in 96-well plates. We performed control measurements and defined 10 nM of tracer 4 in buffer as 100% displacement and the DMSO control as 0% tracer displacement. […] The results of the FP screening were visualized in a waterfall plot and plate-based heatmaps (Figure , Figure S3).
Fluorescence polarization (FP) assays were performed as follows. The assays for H. influenzae TrmD have been described previously. All assays were conducted in technical triplicate using black 96-well half area plates. For the FP assays, a tracer (20 nM Cy5TPD for E. coli and H. influenzae TrmD, 10 nM tracer 4 for S. aureus TrmD) was mixed with the respective enzyme (2 μM E. coli TrmD, 2 μM H. influenzae TrmD, 500 nM S. aureus TrmD) in buffer (E. coli and H. influenzae TrmD: 50 mM HEPES, 500 mM NaCl, 5% Glycerol, pH 7.5, S. aureus TrmD: 40 mM Tris HCl, 100 mM NaCl, 10 mM MgCl2, 5% Glycerol, pH 7.5). The compounds were added in varying concentrations for K D-value determination. […] The Z-factor for tracer 4 was determined by measuring 48 replicates of the free tracer (positive controls, PC) and 48 replicates of a mixture of enzyme and tracer (negative controls, NC). The Z-factor is defined in terms of the means (μ) and standard deviations (σ) of the positive and negative controls and calculated as Z = 1–(3*(σnc + σpc)/(μnc–μpc)). […] Polarization values (mP) were determined from polarization-specific parallel and orthogonal fluorescence intensities. K D-values were calculated in GraphPad Prism 8.0.1 using the four-parameter Hill equation: y(% tracer bound) = bottom + ([ligand]-slope) × (top–bottom)/([ligand]-slope + K Dslope).
A commercial azide diversity library (Enamine) containing 320 azides at a concentration of 100 mM in DMSO in a 96-well tube rack was employed for this nanoSAR study. For the reaction of the azides with alkyne 7 via CuAAC, a master mix was prepared. […] The solvents were degassed with argon to avoid oxidation of the copper(I) during the reaction. To each well of a 96-well PCR plate (Applied Biosystems MicroAmp) were added 23 μL of the master mix and 1 μL of the 100 mM azide stock. The final concentrations in the Mastermix were: 8.7 mM sodium ascorbate (8.3 mM in reaction well), 1.1 mM TBTA (1.0 mM in reaction well), 4.3 mM 7 (4.1 mM in reaction well), 1.3 mM CuSO4×5 H2O (1.2 mM in reaction well).

Row | SMILES | % displaced tracer [%]
1 | C[C@@H](CN)n1cc(-c2c[nH]c3nc[nH]c(=O)c23)nn1 [Compound 03H12, O=C1NC=NC2=C1C(C3=CN([C@H](CN)C)N=N3)=CN2] | 20

Same assay, conditions: crude triazole at 1 μM, assuming full conversion; 500 nM TrmD, 10 nM tracer 4; read-out: % displaced tracer

Row | SMILES | inhibition at 1 µM [%]
2 | CCc1nc(Cn2cc(-c3c[nH]c4nc[nH]c(=O)c34)nn2)cs1 [Compound 01E03, S1C(=NC(=C1)CN2N=NC(C=3C=4C(=O)NC=NC4NC3)=C2)CC] | 75
3 | O=c1[nH]cnc2[nH]cc(-c3cn(-c4ccccc4Cl)nn3)c12 [Compound 02F03, Clc1c(N2N=NC(C=3C=4C(=O)NC=NC4NC3)=C2)cccc1] | 22
4 | O=c1[nH]cnc2[nH]cc(-c3cn(-c4nccs4)nn3)c12 [Compound 02D03, S1C(=NC=C1)N2N=NC(C=3C=4C(=O)NC=NC4NC3)=C2] | 7
5 | O=c1[nH]cnc2[nH]cc(-c3cn(CCN4CCC(O)CC4)nn3)c12 [Compound 01H11, O=C1NC=NC=2NC=C(C=3N=NN(C3)CC[N@H+]4CC[C@H](O)CC4)C12] | 38
6 | O=c1[nH]cnc2[nH]cc(-c3cn(CCOCC4CCCC4)nn3)c12 [Compound 03B11, O=C1NC=NC=2NC=C(C=3N=NN(C3)CCOCC4CCCC4)C12] | 44
7 | CCOc1ccc(-n2cc(-c3c[nH]c4nc[nH]c(=O)c34)nn2)cc1 [Compound 01D07, O=C1NC=NC=2NC=C(C=3N=NN(c4ccc(OCC)cc4)C3)C12] | 19
8 | CC(C)(C)OC(=O)N1CC(c2ocnc2Cn2cc(-c3c[nH]c4nc[nH]c(=O)c34)nn2)C1 [Compound 02B10, O=C(OC(C)(C)C)N1C[C@H](C=2OC=NC2CN3N=NC(C=4C=5C(=O)NC=NC5NC4)=C3)C1] | 37
9 | O=c1[nH]cnc2[nH]cc(-c3cn(-c4ccc5c(c4)CCO5)nn3)c12 [Compound 01B03, O=C1NC=NC=2NC=C(C=3N=NN(c4cc5c(OCC5)cc4)C3)C12] | 52
10 | CC(C)Cn1cc(-c2c[nH]c3nc[nH]c(=O)c23)nn1 [Compound 02F06, O=C1NC=NC=2NC=C(C=3N=NN(C3)CC(C)C)C12] | 1.22
11 | O=c1[nH]cnc2[nH]cc(-c3cn(C4CNC4)nn3)c12 [Compound 03F12, O=C1NC=NC=2NC=C(C=3N=NN(C3)C4C[NH2+]C4)C12] | 42
12 | O=c1[nH]cnc2[nH]cc(-c3cn(CCO)nn3)c12 [Compound 04B04, O=C1NC=NC=2NC=C(C=3N=NN(C3)CCO)C12] | 63
13 | C[C@H](c1ccc(F)cc1Cl)n1cc(-c2c[nH]c3nc[nH]c(=O)c23)nn1 [Compound 01G11, Clc1c(ccc(F)c1)[C@H](N2N=NC(C=3C=4C(=O)NC=NC4NC3)=C2)C] | 56
14 | O=c1[nH]cnc2[nH]cc(-c3cn(CCCN4CCSCC4)nn3)c12 [Compound 02H07, S1CC[NH+](CC1)CCCN2N=NC(C=3C=4C(=O)NC=NC4NC3)=C2] | 59
15 | O=c1[nH]cnc2[nH]cc(-c3cn(Cc4cccc(Cl)c4)nn3)c12 [Compound 03D11, Clc1cc(ccc1)CN2N=NC(C=3C=4C(=O)NC=NC4NC3)=C2] | 75
16 | CCN(CC)CCn1cc(-c2c[nH]c3nc[nH]c(=O)c23)nn1 [Compound 01H09, O=C1NC=NC=2NC=C(C=3N=NN(C3)CC[NH+](CC)CC)C12] | 27
17 | COc1cccc(OC)c1Cn1cc(-c2c[nH]c3nc[nH]c(=O)c23)nn1 [Compound 02D12, O=C1NC=NC=2NC=C(C=3N=NN(C3)Cc4c(OC)cccc4OC)C12] | 18
18 | O=c1[nH]cnc2[nH]cc(-c3cn(-c4cccc5c4CCCC5)nn3)c12 [Compound 02A11, O=C1NC=NC=2NC=C(C=3N=NN(c4c5c(ccc4)CCCC5)C3)C12] | 14

Row | SMILES | inhibition at 1 µM [%]
19 | O=c1[nH]cnc2[nH]cc(-c3cn(Cc4cc(=O)n5nccc5[nH]4)nn3)c12 [Compound 02A09, O=C1N2N=CC=C2NC(=C1)CN3N=NC(C=4C=5C(=O)NC=NC5NC4)=C3] | 12
20 | O=c1[nH]cnc2[nH]cc(-c3cn(CCP(=O)(O)O)nn3)c12 [Compound 03C01, P([O-])([O-])(=O)CCN1N=NC(C=2C=3C(=O)NC=NC3NC2)=C1] | 28
21 | Cc1nc2ccc(-n3cc(-c4c[nH]c5nc[nH]c(=O)c45)nn3)cc2s1 [Compound 01F07, S1c2c(N=C1C)ccc(N3N=NC(C=4C=5C(=O)NC=NC5NC4)=C3)c2] | 11
22 | O=c1[nH]cnc2[nH]cc(-c3cn([C@H]4COC[C@@H]4n4cccn4)nn3)c12 [Compound 04D04, O=C1NC=NC=2NC=C(C=3N=NN(C3)[C@@H]4[C@@H](N5N=CC=C5)COC4)C12] | 51
23 | O=c1[nH]cnc2[nH]cc(-c3cn(C[C@H](O)Cc4ccccc4)nn3)c12 [Compound 03D03, O=C1NC=NC=2NC=C(C=3N=NN(C3)C[C@H](O)Cc4ccccc4)C12] | 39
24 | CS(=O)(=O)c1cc(Cn2cc(-c3c[nH]c4nc[nH]c(=O)c34)nn2)cc(C(F)(F)F)c1 [Compound 03A01, S(=O)(=O)(c1cc(cc(c1)CN2N=NC(C=3C=4C(=O)NC=NC4NC3)=C2)C(F)(F)F)C] | 63
25 | O=c1[nH]cnc2[nH]cc(-c3cn(C[C@H]4CCCO4)nn3)c12 [Compound 01C06, O=C1NC=NC=2NC=C(C=3N=NN(C3)C[C@@H]4OCCC4)C12] | 24
26 | O=c1[nH]cnc2[nH]cc(-c3cn(Cc4cccc5ccccc45)nn3)c12 [Compound 01F10, O=C1NC=NC=2NC=C(C=3N=NN(C3)Cc4c5c(ccc4)cccc5)C12] | 84
27 | O=c1[nH]cnc2[nH]cc(-c3cn(Cc4cc(C5CC5)no4)nn3)c12 [Compound 01A07, O=C1NC=NC=2NC=C(C=3N=NN(C3)CC=4ON=C(C4)C5CC5)C12] | 77
28 | COC(=O)c1coc(Cn2cc(-c3c[nH]c4nc[nH]c(=O)c34)nn2)n1 [Compound 03C08, O=C(OC)C=1N=C(OC1)CN2N=NC(C=3C=4C(=O)NC=NC4NC3)=C2] | 40
29 | O=c1[nH]cnc2[nH]cc(-c3cn(CCn4cccn4)nn3)c12 [Compound 01D09, O=C1NC=NC=2NC=C(C=3N=NN(C3)CCN4N=CC=C4)C12] | 39
30 | O=c1[nH]cnc2[nH]cc(-c3cn(C[C@H]4CCNC4)nn3)c12 [Compound 03C12, O=C1NC=NC=2NC=C(C=3N=NN(C3)C[C@@H]4C[NH2+]CC4)C12] | 74
31 | C[C@@H](n1cc(-c2c[nH]c3nc[nH]c(=O)c23)nn1)C12CC(CO1)C2 [Compound 01F11, O=C1NC=NC=2NC=C(C=3N=NN(C3)[C@@H](C45OCC(C4)C5)C)C12] | 26
32 | O=c1[nH]cnc2[nH]cc(-c3cn(Cc4noc5c4CCC5)nn3)c12 [Compound 01C04, O=C1NC=NC=2NC=C(C=3N=NN(C3)CC4=NOC5=C4CCC5)C12] | 41
33 | O=c1[nH]cnc2[nH]cc(-c3cn(CC(F)(F)F)nn3)c12 [Compound 03A11, FC(F)(F)CN1N=NC(C=2C=3C(=O)NC=NC3NC2)=C1] | 14
34 | Cc1ccccc1-n1cc(-c2c[nH]c3nc[nH]c(=O)c23)nn1 [Compound 01D08, O=C1NC=NC=2NC=C(C=3N=NN(c4c(cccc4)C)C3)C12] | 9
35 | CC[C@@H](c1ccccc1F)n1cc(-c2c[nH]c3nc[nH]c(=O)c23)nn1 [Compound 02B09, Fc1c(cccc1)[C@@H](N2N=NC(C=3C=4C(=O)NC=NC4NC3)=C2)CC] | 24
